The nature of series [1]: Pharmacokinetics in rats after oral gavage. It counts as in vivo. The following applies: rat, PO 10 mg/kg in 100% PEG400, plasma; for half-life: plasma, po, 10 mg/kg. As for the experimental part: Ivacaftor, compound 105 and compound 106 were discrete dosed to rats via oral gavage (PO). Each compound was administered at a dose of 10 mg/kg to three rats (N=3 rats/compound; total of 9 rats in the study). […] Blood samples were centrifuged to obtain plasma. Plasma samples were analyzed for concentrations of the dosed compound at each time point using LC-MS/MS. The limit of quantitation of each compound was 1 ng/mL.

Series [2] has as its system patients with cystic fibrosis carrying at least one copy of the G551D-CFTR mutation. Particulars: phase III trials; cited from earlier work.
[3] abbreviates: individual animals, read-out: t1/2 (hr), individual animal (converted).
[4] abbreviates: mean of N=3 rats, read-out: t1/2 (hr), Mean (converted).

“And” between values parts separate entries of the source, which are not always exact repeats. Equal values may be shown once. Read-outs that look alike come from different tables or passages of the source.

`[2H]C([2H])([2H])C(c1cc(C(C([2H])([2H])[2H])(C([2H])([2H])[2H])C([2H])([2H])[2H])c(NC(=O)c2c[nH]c3ccccc3c2=O)cc1O)(C([2H])([2H])[2H])C([2H])([2H])[2H]` [Compound 105, N-(2,4-Di-(tert-butyl-d9)-5-hydroxyphenyl)-4-oxo-1,4-dihydroquinoline-3-carboxamide]: in series [1] (individual animals), the “t1/2 (hr), individual animal” value was 16.33 h and 14.39 h. For the same compound, the results for the half-life in series [1] (setting [3]) and in series [1] (setting [4]) were 13.8 h and 14.8 h, respectively.
Take `[2H]C([2H])([2H])C(c1cc(C(C)(C)C)c(NC(=O)c2c[nH]c3ccccc3c2=O)cc1O)(C([2H])([2H])[2H])C([2H])([2H])[2H]` [Compound 106, N-(2-(tert-Butyl)-4-(tert-butyl-d9)-5-hydroxyphenyl)-4-oxo-1,4-dihydroquinoline-3-carboxamide]: the “t1/2 (hr), individual animal” value in series [1] (individual animals) is 14.28 h and 11.92 h. Besides, the half-life is 13.5 h in series [1] (setting [3]) and 13.2 h in series [1] (setting [4]).
As for `CC(C)(C)c1cc(C(C)(C)C)c(NC(=O)c2c[nH]c3ccccc3c2=O)cc1O` [Ivacaftor, N-(2,4-di-tert-butyl-5-hydroxyphenyl)-4-oxo-1,4-dihydroquinoline-3-carboxamide, reference compound], the “lung function and other key indicators of the disease (sweat chloride levels, likelihood of pulmonary exacerbations, body weight)” value in series [2] is “marked levels of improvement”. Moreover, the “t1/2 (hr), individual animal” value in series [1] (individual animals) was 12.43 h and 10.01 h. Further, the half-life is 9.03 h in series [1] (setting [3]) and 10.5 h in series [1] (setting [4]).

The record behind these values is US10479766B2, “Deuterated CFTR potentiators” (Vertex Pharmaceuticals (Europe) Limited, priority 2011, dated 2019).
